Experimental data published in patent US8895302B2, “Directed differentiation of primate pluripotent stem cells into functional basal forebrain cholinergic neurons (BFCNs) and medium spiny gabaergic projection neurons” (Wisconsin Alumni Research Foundation, priority 2010, dated 2014).

Columns and labels:
[1] = system: hESC-derived cholinergic neurons; assay: Whole-cell patch clamp, spontaneous synaptic currents of hESC-derived BFCNs; type: cell-based, human; settings: CNQX 20 μM in bath, BFCNs differentiated 8-10 weeks
Method: Whole-cell patch-clamp recordings were made from hESC-derived cholinergic neurons at 8-10 weeks age as previously reported (Johnson et al., 2007). Briefly, the neurons were held at −70 mV to record the spontaneous release and Na+/K+ channel activities. For action potential recording, the cells were held at 0 pA with current-clamp model and the steps of currents from +[…] were injected into cells by the holding electrode. The bath solution consisted of 127 mM NaCl, 1.2 mM KH2PO4, 1.9 mM KCl, 26 mM NaHCO3, 2.2 mM CaCl2, 1.4 mM MgSO4, 10 mM glucose, 290 mM mOsm and 95% O2/5% CO2. Recording pipettes were filled with an intracellular recording solution consisting of 20 mM KCl, 121 mM K^+-gluconate, 10 mM Na^+-HEPES, 10 mM BAPTA, 4 mM Mg2^+-ATP pH 7.2 and 290 mOm. Bicuculline (20 μM; Sigma) or 6-cyano-7-nitroquinoxiline-2,3-dione (CNQX, 20 μM; RBI) was applied to the bath solution to distinguish inhibitory (GABAergic) and excitatory (glutamatergic) response. Biocytin (1%, Sigma) was injected into cells after recording to identify the neuronal identity. An Olympus BX51WI microscope was used to visualize neurons. […] Data were analyzed with pClamp 9.0 (Axon instruments). […]
To determine the functionality of the hESC-derived BFCNs, we first measured the electrophysiological properties of the BFCNs that were differentiated for 8-10 weeks by whole cell patch clamping recording (FIG. 3). […]

striatum = assay: Unilateral QA-induced striatal lesion; type: in vivo, SCID mice
Method: Twenty-four male SCID mice (10 weeks of age) were anesthetized with 1-2% isoflurane mixed in oxygen, and received stereotaxic injection of 2 μl 0.1M quinolinic acid (QA, P63204; Sigma, in saline with 0.2 mg/ml ascorbic acid) in the right striatum at the coordinates (anterior-posterior (AP)=−0.7 mm, lateral (L)=+1.7 mm, vertical (V)=−3.2 mm) to create the unilateral lesion (Hansson et al., 1999).
To assess the function of in vitro produced human medium spiny GABA projection neurons, we created a unilateral QA-induced striatal lesion model in immune deficient SCID mice (Sanberg et al., 1989; Reynolds et al., 2006). Four weeks post injection of QA, majority of neurons, as labeled by NeuN, including FoxP2 and DARPP32 expressing GABA projection neurons in the striatum were lost, resulting in a smaller striatum in the lesion side as compared to the non-lesion side. Accompanying the loss of neurons, there was a significant increased level of GFAP expression in astrocytes.

[2] = system: hESC-derived primitive neural stem cells; assay: Patterning of hESC-derived primitive neural stem cells to ventral telencephalic progenitors (immunocytochemistry, FACS, Western blotting); type: cell-based, human
Method: (§1) The procedure for differentiating hESCs to neuroectodermal cells was the same as described (Li et al., 2005; Zhang et al., 2001). hESCs were differentiated to Pax6-expressing primitive neural stem cells for 10-12 days in a neural induction medium consisting of DMEM/F12, N2 supplement and non-essential amino acids (Pankratz et al., 2007; Zhang et al., 2001). The primitive neural stem cells were then treated with SHH (50-1000 ng/ml) or its small molecule agonist purmorphamine (0.1-1.5 uM, Calbiochem, San Diego, Calif., USA) from day 12 to day 26 to specify ventral progenitors. During this period, neural stem cells grew rapidly and formed neural tube-like rosettes, which were gently blown off at day 15-17 and grown in suspension under the same medium. For neuronal differentiation, neural progenitor clusters were dissociated with Accutase at 37° C. for 5 minutes and plated onto ornithine/laminin-coated coverslips at day 26 in Neurobasal medium.
Immunocytochemical staining on coverslip cultures and free-floating brain sections was performed as previously described (Li et al., 2005; Yang et al., 2008). The images were visualized using a Nikon TE600 fluorescence microscope (Nikon Instruments, Melville, N.Y., USA) or a Nikon C1 laser-scanning confocal microscope.
Protein samples were collected at day 25 after differentiation. Western blot analysis was performed as described (Li et al., 2009). Proteins (25 μg) were separated by 10% acrylamide gel and blotted with antibodies against Nkx2.1 (1:2,000, Mouse IgG, Chemicon & Millipore), Pax6 (1:4,000, Rabbit IgG, Covance), and β-actin (1:4,000, Mouse IgG, Sigma).
To quantify the differentiation efficiency of forebrain progenitors, neural progenitor spheres were dissociated into single cells and quantified by fluorescent activated cell sorting (FACS) (LaVaute et al., 2009). For quantifying differentiated cholinergic neurons, the neural progenitor spheres were digested with Accutase (Innovation Cell Technology) into small clusters and plated on coverslips for immunostaining as previous described (Li et al., 2005; Hu et al., 2009). Optical fields of cultures were randomly selected, and the neuronal cells and total cells (Hoechst stained) were counted using a Metamorph software. All the experiments were triplicated and the results were reproduced in two different cell lines (H1 and H9). For statistical analysis, 2-side t-test was used.
hESCs were first differentiated to Pax6-expressing pNSCs in a chemically defined medium as previously described (Johnson et al., 2007; Li et al., 2005; Zhang et al., 2001). We first determined the time course of SHH action by applying SHH for a week at day 10, 13, and 17 and by quantifying cells that express Nkx2.1, an MGE transcription factor.
Basal forebrain cholinergic neurons (BFCNs) are differentiated from progenitors in the MGE and POa/AEP domains that express Nkx2.1 (Wilson and Rubenstein, 2000; Zhao et al., 2003). […] In contrast, the expression of dorsal telencephalic transcription factors, Pax6 and Emx1, was decreased (FIG. 1B). Immunostaining and Western blotting analyses confirmed that Nkx2.1-expressing cell population increased progressively, with 97±1.3% of the cells being Nkx2.1 positive in the presence of 1000 ng/ml of SHH, whereas the population of Pax6 positive dorsal progenitors decreased, to less than 0.01% under 1000 ng/mlof SHH (FIG. 1C, D, E).

[3] = system: hESC-derived primitive neural stem cells; assay: RT-qPCR of dorsal/ventral transcription factors in patterned neural stem cells; type: cell-based, human; settings: SHH 200 or 0.65 uM of purmorphamine, day 25
Method: as §1
Total RNA was extracted using Trizol reagent (Invitrogen), and cDNA was reverse-transcribed using the SuperScript III First-Strand (Invitrogen). Real-time PCR was performed using the Bio-Rad MyiQ real-time PCR detection system as described (Du et al., 2009).
Basal forebrain cholinergic neurons (BFCNs) are differentiated from progenitors in the MGE and POa/AEP domains that express Nkx2.1 (Wilson and Rubenstein, 2000; Zhao et al., 2003). […]

[4] = SHH 200 ng/ml or purmorphamine 0.65 uM, day 30

## N#Cc1cc2[nH]c(=O)c(=O)[nH]c2cc1[N+](=O)[O-] [CNQX, 6-cyano-7-nitroquinoxiline-2,3-dione]
[1]
  spontaneous synaptic activity: partially blocked

## O=C(O)c1cccnc1C(=O)O [QA, quinolinic acid]
striatum; lesioned mice
  stride length on the right limbs versus control animals that received aCSF (Treadscan): longer stride length
striatum; rotarod, open field, Treadscan
  behavioural outcome of unilateral striatal lesion: locomotion deficits typical of HD

## c1ccc2c(Oc3nc(Nc4ccc(N5CCOCC5)cc4)c4ncn(C5CCCCC5)c4n3)cccc2c1 [purmorphamine]
[2]; [4]
  GABA interneuron progenitor marker Nkx2.1 (immunostaining): minimal expression
  cortical marker Pax6 (immunostaining): decreased expression
  striatal GABA neuron progenitor markers Meis2, Mash1 and Otx2 (immunostaining): increased expression
[2]; pNSCs treated at day 10-12
  purmorphamine concentration equivalent to SHH at 200 ng/ml for GABAergic progenitors: ~0.65 µM
  purmorphamine concentration equivalent to SHH at 500 ng/ml for cholinergic progenitors: ~1 µM
[3]
  Gsh2 mRNA versus control group (RT-qPCR): upregulated expression
  Pax6 mRNA versus control group (RT-qPCR): downregulation
